Assay results taken from US6605644B2, “Analgesic regimen” (Ortho-McNeil Pharmaceutical, Inc., priority 1999, dated 2003).
Structures can show the parent of a compound that is named as a salt.

What was measured:
[1] = cited from earlier work; for peak plasma concentration: mean±standard deviation
[2] = Example 1: randomized double-blind study of 1-, 4- or 10-day titration to 200 mg/day in patients with chronic joint pain; type: in vivo; conditions: 10-day titration group (50 mg increments every 3 days to 200 mg/day) compared with 1-day and 4-day titration groups, 14 days
Procedure: A total of 465 patients with chronic joint pain were enrolled in the study and randomized into one of four treatment groups for 14 days. Patients continued on their prestudy dose of NSAIDs while concurrently receiving tramadol or placebo. Tramadol groups were titrated at three different rates to achieve the study target dose of 200 mg/day. […] Discontinuation due to any adverse event was similarly analyzed. If the trend was statistically significant, pairwise comparisons were performed to determine the statistical significance between titration rates.
The study protocol was approved by an Institutional Review Board at each study site and informed consent regarding the risks and benefits of participation was obtained for all patients.
Patients with chronic joint pain who had been receiving a maintenance dose (±25%) of NSAID for at least 30 days, and who required additional pain relief, were randomized into three titration groups and a placebo group using a 2:2:2:1 randomization schedule. […]

μ opioid receptors = μ opioid receptors (Homo sapiens, UniProt P35372); conditions: cited from earlier work
Chain of μ opioid receptors (P35372 whole entry): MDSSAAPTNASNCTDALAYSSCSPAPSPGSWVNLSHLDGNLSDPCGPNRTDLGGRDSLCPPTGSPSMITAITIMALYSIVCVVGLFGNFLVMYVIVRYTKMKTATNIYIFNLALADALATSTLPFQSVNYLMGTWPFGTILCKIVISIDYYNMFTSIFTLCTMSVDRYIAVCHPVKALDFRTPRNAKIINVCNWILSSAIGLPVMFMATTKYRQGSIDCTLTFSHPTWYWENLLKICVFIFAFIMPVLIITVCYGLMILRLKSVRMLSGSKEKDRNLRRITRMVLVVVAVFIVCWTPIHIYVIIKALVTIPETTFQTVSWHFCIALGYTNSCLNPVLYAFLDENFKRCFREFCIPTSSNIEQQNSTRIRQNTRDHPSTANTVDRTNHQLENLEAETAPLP

[3] = cited from earlier work
[4] = Example 2: open-label run-in and double-blind study of 10-, 16- or 13-day titration in subjects with chronic pain
[5] = single 100 mg oral dose, healthy subjects
[6] = double-blind phase, 10-day titration group
[7] = double-blind phase, 13-day titration group
[8] = double-blind phase, 16-day titration group

Structure (SMILES)	peak plasma concentration [1, 5]	terminal plasma elimination half-life [1, 5]	time of peak plasma concentration after administration [1, 5]	discontinuations due to dizziness and/or vertigo, nausea and/or vomiting, and any other adverse event [2]	binding affinity to μ receptors (μ opioid receptors)	absorption after oral administration ([1]; oral administration)	bound to plasma proteins [3]	median time to discontinuation due to any adverse event [4, 6]	median time to discontinuation due to nausea and/or vomiting [4, 6]	mean reduction from baseline PVA scores ([4]; double-blind phase, 10-day titration group (200 mg/day))	median time to discontinuation due to any adverse event [4, 7]	median time to discontinuation due to nausea and/or vomiting [4, 7]	mean reduction from baseline PVA scores ([4]; double-blind phase, 13-day titration group (150 mg/day))	median time to discontinuation due to any adverse event [4, 8]	median time to discontinuation due to nausea and/or vomiting [4, 8]	mean reduction from baseline PVA scores ([4]; double-blind phase, 16-day titration group (200 mg/day))	mean reduction from baseline PVA scores ([4]; open-label/run-in phase, titrated to 200 mg/day over four days)	advantage in cumulative proportion of subjects who discontinued due to nausea and/or vomiting ([4]; titration to 200 mg/day over 10 days versus over 16 days)
CN(C)C[C@H]1CCCC[C@]1(O)c1cccc(O)c1 [mono-O-desmethyl tramadol, mono-O-desmethyltramadol]	55 ± 20 ng/mL	7.4 ± 1.4 h	approximately three															
COc1cccc(C2(O)CCCCC2CN(C)C)c1 (centres unmarked) [tramadol hydrochloride, 2-[(dimethylamino)methyl]-1-(3-methoxyphenyl)cyclohexanol]	308 ± 78 ng/mL		two	fewest discontinuations	low-affinity binding	rapidly and almost completely absorbed	20.2%	9.0 days	9.0 days	1.4 cm	6.5 days	5.5 days	1.6 cm	6.0 days	4.0 days	1.5 cm	2.1 cm	20 percentage
